Entries after “also recorded” stand apart in the source; their conditions may differ.
Columns and labels:
β-amyloid = β-amyloid expression with antibody 6E10 (Western blot, immunostaining); type: in vivo, mouse; settings: for decrease of 56 kDa β-amyloid (Aβ*56) band intensity vs vehicle: cortex
Experimental: In a pilot project to determine the impact of longterm exposure to THP, the impact of THP, 10 mg/kg s.c. thrice weekly for 3 months, on the progression of Alzheimer's disease (AD) pathology in 3-6 month old 3×TgAD mice was investigated. Mouse brain hemisphere sections were immunostained with specific antibody (6E10) against Aβ or HT7, which recognizes tau and PHF-tau between residue 159 and 163 and visualized with FITC conjugated second antibody.
In another experiment, THP (10 mg/kg/week, administered once a week for 6 months) was administered to 9- and 12-month male mice transgenic for Alzheimer's disease (3×Tg-AD). The 9 month old animals were started on THP at 3 months of age prior to the development of beta amyloid, whereas the 12 month old animals were begun at 6 months of age when beta amyloid had already begun to accumulate within neurons. Typically, the development of intraneuronal beta amyloid is seen in 6 and 9 month old animals and the development of plaques in 12 month old animals. Plaques are rarely seen in 9 month old animals.
Brain sections were stained with beta amyloid antibody 6E10.
THP (10 mg/kg) or vehicle was transdermal treated once a week to 3-month-old 3×Tg-AD mice for 6 months. Western blot analysis was conducted using brain protein from hippocampus with beta amyloid antibody 6E10, which recognizes the abnormally processed isoforms, as well as precursor forms of beta amyloid protein.
THP (10 mg/kg) or vehicle was subcutaneously administered once a month, once per week for 6 months, or once every other day for 3 months. Brain sections of treated mice were stained with beta amyloid antibody 6E10 which recognizes the abnormally processed isoforms, as well as precursor forms of beta amyloid protein.
Further studies were conducted using a dosing regime of once a week for six months administered subcutaneously. Three and six months old 3×Tg-AD and age-matched non-Tg mice were chosen for the experiments, since AD pathology (Aβ) starts development at 3-month and abundant accumulation at 6-months. Allopregnanolone was subcutaneously (s.c.) administrated with 10 mg/kg once per week for 6 months. For neurogenesis and neurosurvival study, BrdU, IdU and CIdU were intraperitoneal (i.p.) injected at the first 5 days, mid 5 days and 5 days before sacrifice during 6-month treatment. After 6 months of allopregnanolone treatment, mice, at 9- and 12-month old, were sacrificed.
Western blot analysis was conducted using brain protein from frontal-parietal-temporal cortex with beta amyloid antibody 6E10, which recognizes the abnormally processed isoforms, as well as precursor forms of beta amyloid protein. The expression of different forms of beta amyloid in 3×Tg-AD mice was characterized.

PCNA and CDK1/cdc2 = PCNA and CDK1/cdc2 mRNA and protein in hippocampus (RT-PCR, Western blot); type: in vivo, mouse
Experimental: Protein was extracted from mouse hippocampus and separated by SDS gel as described in the literature. After transfer, PVDF membrane was plotted with monoclonal antibody for proliferating cell nuclear antigen (PCNA, 1:500, Zymed Laboratories Inc, San Francisco, Calif.) and then incubated with a horseradish peroxidase conjugated secondary antibody which is complementary to the primary antibody. Results were visualized by the ECL Plus Western Blotting Detection System (GE Healthcare, Amersham, Buckinghamshire, UK) followed by TMB development. Optical density was and analyzed by BioRad Quantity One software. The percent protein expression vs. control was normalized by loading control β-actin.
Brain samples derived from the same brains that underwent unbiased stereological analysis and GC/MC for THP detection were also analyzed by real-time RT-PCR and Western blot for expression of PCNA and CDK1 mRNA and protein.
To confirm the stereological analyses results, Western blot analyses of cell proliferation marker PCNA were carried out using samples derived from the same brains which underwent unbiased stereological analysis. PCNA, or Proliferating Cell Nuclear Antigen, is a protein that acts as a processivity factor for DNA polymerase delta subunit in eukaryotic cells and was induced in vitro by THP in cultured rat hippocampal progenitor cells.
Western blot analysis was performed to determine proliferating cell nuclear antigen (PCNA) expression levels in the hippocampus from the same animals that underwent behavior experiments.

CC(=O)[C@H]1CC[C@H]2[C@@H]3CC[C@H]4C[C@H](O)CC[C@]4(C)[C@H]3CC[C@]12C [THP, 3α-hydroxy-5α-pregnan-20-one]
immunocytochemical detection of Abeta*56 (β-amyloid; 10 mg/kg once a week for six months): substantially decreases Abeta*56 in hippocampal neurons | 6E10 immunoreactivity (β-amyloid; 10 mg/kg s.c. every other day for 3 months or once a week for 6 months): significantly decreases 6E10 immunoreactivity | 6E10 immunoreactivity (β-amyloid; 10 mg/kg s.c. once a month): no effect | 6E10 / intraneuronal Aβ immunoreactivity in brain sections (β-amyloid; 3×Tg-AD mice, once a week for 6 months): lower in THP-treated brain region CA1, Cortex and Amygdala than vehicle treated-brain, but not in the subiculum; also recorded: lower in THP-treated 9-month old 3×Tg-AD mice hippocampus, cortex, and amygdala than in vehicle-treated brain, but not in subiculum | AD pathology markers (Aβ 6E10, tau HT7 immunoreactivity) (β-amyloid; 3×TgAD mice, 10 mg/kg s.c. thrice weekly for 3 months): reduced the level of AD pathology markers in 3×TgAD mouse hippocampal CA1 | reduction of Aβ 6-mer 27 kDa band intensity (β-amyloid; 9-month 3×Tg-AD mice, 10 mg/kg s.c. once a week for 6 months): 35±10% | decrease of 56 kDa β-amyloid (Aβ*56) band intensity vs vehicle (β-amyloid; 9-month old 3×Tg-AD mice, 10 mg/kg s.c. once a week for 6 months): 25±4% | Aβ 6-mer 27 kDa band intensity vs vehicle (β-amyloid; 12-month old 3×Tg mice): no difference | decrease of 56 kDa β-amyloid (Aβ*56) band intensity vs vehicle (β-amyloid; 12-month old 3×Tg-AD mice, 10 mg/kg s.c. once a week for 6 months): 15±4% | decrease of 28 kDa β-amyloid oligomer band intensity vs vehicle (β-amyloid; transdermal 10 mg/kg once a week for 6 months, 9-month old 3×Tg-AD mice, hippocampus): 39±13% | PCNA and CDK1 protein expression in hippocampi (PCNA and CDK1/cdc2; 10 mg/kg, Western blot, 3 months): greater PCNA and CDK1 protein expression in the hippocampi of 3×TgAD relative to the non-Tg mice | PCNA expression vs vehicle 21 day after injection (PCNA and CDK1/cdc2; 3×TgAD mice, 6, 9 or 12-month-old): no significant difference | PCNA mRNA in hippocampus (PCNA and CDK1/cdc2; 3×TgAD mice, real-time RT-PCR, 1-20 mg/kg): dose-dependent increase in PCNA mRNA | PCNA immunoblot vs vehicle control (PCNA and CDK1/cdc2; 3×TgAD mice, three and six month, 24 hours after 10 mg/kg): increased | PCNA expression vs vehicle (PCNA and CDK1/cdc2; non-Tg and 3×TgAD mice, 6- and 9-months, 24 hr): did not significantly affect PCNA expression
